# Experimental data as given in patent US20100062012A1, “Negative Genetic Regulation of Cancer Cell Renewal in Synergy with Notch- or Numb-Specific Immunotherapy” (priority 2007, published 2010).
# Where a name gives a salt, the structure may show the parent alone. Peptide text beside a SMILES is read from it. * marks the point of attachment. Cbz = O=C(OCc1ccccc1)*
# What was measured:
# MCF7 [1] = experiment: MTT inhibition of proliferation; format: cell-based; settings: Homo sapiens, 72 h
# Excerpt: (§1) Inhibition of proliferation of tumor cell lines by anticancer drugs.
# MIA-PaCa-2 [2] = experiment: MTT inhibition of proliferation; format: cell-based; settings: Homo sapiens; MIA-PaCa-2, MTT, 72 h
# Excerpt: as §1
# PANC-1 [3] = experiment: MTT inhibition of proliferation; format: cell-based; settings: Homo sapiens; PANC-1, MTT, 72 h
# Excerpt: as §1
# AsPC-1 [4] = experiment: MTT inhibition of proliferation; format: cell-based, human; settings: for IC50: AsPC-1, MTT, 72 h
# Excerpt: as §1
# SKOV-3 [5] = experiment: MTT inhibition of proliferation; format: cell-based, human; settings: SKOV-3, MTT
# Excerpt: as §1
# MCF7 [6] = experiment: Flow cytometry of CSt-C markers after culture with drugs; format: cell-based, human; settings: for cells harvested: after culture of 3×10^6 MCF-7 cells
# Experimental: (§2) Flow cytometery analysis. All cells were cultured with Gem at 2×IC50 of gemcitabine for 10 days. Cultured cells (2×10^5) were washed in cold-PBS followed by blocking with 20 μL of 1 mg/mL of human IgG (Sigma, Saint Louis, Mo.) for 1 hour on ice. This step was necessary to inhibit non-specific binding of immunoglobulins during staining. Cells were then triple-stained with antibodies against ESA, CD44, and CD24. Analysis was performed with Becton Dickinson FACSCalibur and Cell Quest software (Becton Dickinson). Cells were gated on ESA+ population. Expression of CD24 and CD44 was examined in gated ESA+ cells as we described (26). The population of the ESA+, CD44hi and CD24low/− cells was calculated as percent of total cells and total ESA+ cells. All cell lines were also stained with a MIC-A/B and CD133, and analyzed as above.
# MIA-PaCa-2 [7] = experiment: as above; format: cell-based, human; settings: for % CD44hi CD24- in ESA+ cells / % CD44hi CD24hi in ESA+ cells / % CD44hi CD24low in ESA+ cells / % CSt-like-C / % ESA+: MIA-PaCa-2 after culture with drug
# Experimental: as §2
# MIA-PaCa-2 [8] = experiment: Flow cytometry of NKG2D ligands MIC-A/B in drug-resistant cells; format: cell-based, human; settings: MIA PaCa-2, FIG. 7A
# Experimental: as §2
# To address the hypothesis that drug-resistant cancer cells are more sensitive to cellular immune effectors, we quantified expression of NKG2D ligands, MIC-A and -B (58, 59). ESA^+ MIA-PaCa-2 cells were analyzed for MIC-A/B. MCF7 cells were analyzed with CD44, CD24 and MIC-A/B (FIG. 7B), because almost all MCF7 cells (95% and more) expressed ESA.
# Ovarian and PC = experiment: CD44+ CD24lo cells after taxol; format: cell-based; settings: Ovarian and PC treated
# MIA-PaCa-2 [9] = experiment: Flow cytometry of CSt-C markers after culture with drugs; format: cell-based, human; settings: starting from 3.0×10^6 Mia-PaCa-2 cells
# SKOV3.A2 cells = experiment: IFN-g production by Numb-1 peptide activated PBMC on SKOV3.A2 cells; format: cell-based, human; settings: presentation of Numb-1(87-95) peptide; 24 h and 48 h
# Experimental: FIG. 11. (A). SKOV3.A2 cells present the Numb-1 (87-95) peptide to Numb-1 peptide activated PBMC. Substantially higher, by 2-fold IFN-g production by Numb-1-peptide activated PBMC than by Notch peptides activated PBMC. Note that at 48 h the amount of IFN g produced by the two Notch peptide activated cell lines and the non-specifically, IL-2-activated cell lines was low and similar. Only Notch peptide, 2112-2120, can be presented by HL-A2 after Notch digestion by proteasome. (the program paproc.de). (B). Western analysis of Notch and Numb protein expression in SKOV3. […] A part of Numb is phosphorylated. A small part of Numb was phosphorylated at the Ser^283. A large part of Numb was phosphorylated at the Ser^264. […] The closed symbols indicate are 24 h measurements, the open symbols indicate 48 h measurements.
# breast tumors = settings: reference 14; cited from earlier work
# AsPC-1 [10] = experiment: Flow cytometry of CSt-C markers after culture with drugs; format: cell-based, human; settings: AsPC-1 after culture with drug
# Experimental: as §2
# PANC-1 [11] = experiment: as above; format: cell-based, human
# Experimental: as §2
# SKOV-3 [12] = experiment: as above; format: cell-based, human
# Experimental: as §2
# MCF7 cells = experiment: Stimulation of MCF7 / GEMRes MCF7 by DLL4; format: cell-based, human
# Experimental: Stimulation of GEMRes MCF7 by DLL4. GEMRes MCF7 were obtained after culture with 0.3 uM GEM for 7 weeks. MCF7 were stimulated for 24 hrs, in medium containing estradiol, fibroblast growth factor in the presence or absence of DLL4, as described (40).
# MCF7 [13] = experiment: Quantitative immunoblot of Notch and Numb proteins with or without GEM; format: cell-based, human
# Experimental: (§3) Western blot analysis. Cell lysates of live MIA-PaCa-2, MCF7, and SKOV-3 were prepared as we described (74) after trypsin treatment of cultures. This procedure eliminated dead and dying cells. Cellular proteins were resolved by SDS-PAGE and transferred to a polyvinylidene difluoride membrance. Immuno-blotting and quantification was performed as we described (74). […] Notch signals promote survival and proliferation of normal stem cells. Notch signals are mediated by truncated intracellular domain (NICD), which activate transcription in the nucleus. Numb antagonizes Notch signal by inducing degradation of Notch (60, 13). Mammalian Numb has four splicing isoforms, which are divided into two types (Numb^L and Numb^S) based on the presence or absence of a 49 amino acid insert (5 kDa) in the proline-rich region (PRR) in the C-terminus. It is unclear whether Numb^L or Numb^S is a significant antagonist of Notch. To characterize expression of Notch and Numb proteins we performed quantitative immunoblot analysis of proteins in the lysates of live MIA-PaCa-2 and MCF7 cultured with or without GEM. (FIG. 9).
# MIA-PaCa-2 [14] = experiment: as above; format: cell-based, human
# Experimental: as §3
smiles,measurement,setting,value
"CC(=O)O[C@H]1C(=O)[C@@]2(C)[C@H]([C@H](OC(=O)c3ccccc3)[C@]3(O)C[C@H](OC(=O)[C@H](O)[C@@H](NC(=O)c4ccccc4)c4ccccc4)C(C)=C1C3(C)C)[C@]1(OC(C)=O)CO[C@@H]1C[C@@H]2O [PTX, paclitaxel]",IC50,MCF7 [1],4.5 nM
same,IC50,MIA-PaCa-2 [2],5.3 nM
same,IC50,PANC-1 [3],3.9 nM
same,IC50,"AsPC-1 [4]; Homo sapiens, ASPC1, 72 h",18.3 nM
same,IC50 in AsPC-1 relative to PANC-1,AsPC-1 [4]; most resistant vs most sensitive line,more than 4 fold
same,IC50,"SKOV-3 [5]; Homo sapiens, SK-OV-3, 72 h",4.7 nM
same,change of CSt-like-C population,MCF7 [6]; MCF7,increased
same,cells harvested,MCF7 [6],0.4 ×10^6
same,% CD44hi CD24- in ESA+ cells,MIA-PaCa-2 [7],1.0%
same,% CD44hi CD24hi in ESA+ cells,MIA-PaCa-2 [7],21.2%
same,% CD44hi CD24low in ESA+ cells,MIA-PaCa-2 [7],23.1%
same,% CSt-like-C,MIA-PaCa-2 [7],7.7%
same,% ESA+,MIA-PaCa-2 [7],33.2%
same,number of cells expressing MICA and MICB in drug-resistant cells,MIA-PaCa-2 [8],did not increase
same,number of CD44+ CD24lo cells,Ovarian and PC,increased
same,cells harvested,MIA-PaCa-2 [9],3.3 ×10^6 cells
C[S+]([O-])c1ccc(-c2nc(-c3ccc(F)cc3)c(-c3ccncc3)[nH]2)cc1 (stereo not shown) [SB20380],effect of treatment of SKOV3.A2 cells on IFN-g production by the indicator cell line,SKOV3.A2 cells,weaker inhibitory effect
CC(C)C[C@@H](C=O)NC(=O)[C@H](CC(C)C)NC(=O)[C@H](CC(C)C)NC(=O)OCc1ccccc1 [MG132] (Cbz-Leu-Leu-Leu-aldehyde),low Numb levels after treatment,breast tumors,restored to high levels
"Nc1ccn([C@@H]2O[C@H](CO)[C@@H](O)C2(F)F)c(=O)n1 [GEM, gemcitabine hydrochloride]",IC50,MCF7 [1],430 nM
same,IC50,MIA-PaCa-2 [2],300 nM
same,IC50,PANC-1 [3],350 nM
same,IC50,AsPC-1 [4]; hydrochloride,20 nM
same,IC50,"AsPC-1 [4]; Homo sapiens, ASPC1, 72 h",< 20 nM
same,IC50,"SKOV-3 [5]; Homo sapiens, SK-OV-3, 72 h",< 20 nM
same,IC50,"SKOV-3 [5]; 72 h, hydrochloride",16 nM
same,% CD44hi CD24- in ESA+ cells,AsPC-1 [10],19.3%
same,% CD44hi CD24hi in ESA+ cells,AsPC-1 [10],20.1%
same,% CD44hi CD24low in ESA+ cells,AsPC-1 [10],58.2%
same,% CSt-like-C,AsPC-1 [10],57.6%
same,% ESA+,AsPC-1 [10],98.9%
same,change of CSt-like-C population,MCF7 [6]; MCF7,increased
same,increase of ESA+ CD44hi CD24low and CD133+ populations in GEMRes population vs entire population,MCF7 [6]; MCF7,3-5 fold
same,% CD44hi CD24- in ESA+ cells,MCF7 [6]; MCF7 after culture with drug,0.3%
same,% CD44hi CD24hi in ESA+ cells,MCF7 [6]; MCF7 after culture with drug,10.2%
same,% CD44hi CD24low in ESA+ cells,MCF7 [6]; MCF7 after culture with drug,6.3%
same,% CSt-like-C,MCF7 [6]; MCF7 after culture with drug,6.3%
same,% ESA+,MCF7 [6]; MCF7 after culture with drug,95.4%
same,cells harvested,MCF7 [6],0.6 ×10^6
same,change of CSt-C (CSt-like-C) population,MIA-PaCa-2 [7]; MIA-PaCa-2,increased
same,% CD44hi CD24- in ESA+ cells,MIA-PaCa-2 [7],1.1%
same,% CD44hi CD24hi in ESA+ cells,MIA-PaCa-2 [7],12.2%
same,% CD44hi CD24low in ESA+ cells,MIA-PaCa-2 [7],43.2%
same,% CSt-like-C,MIA-PaCa-2 [7],17.0%
same,% ESA+,MIA-PaCa-2 [7],39.5%
same,increase of ESA+ CD44hi CD24low and CD133+ populations in GEMRes population vs entire population,MIA-PaCa-2 [7]; Mia-PaCa-2,3-5 fold
same,increase of ESA+ CD44hi CD24low and CD133+ populations in GEMRes population vs entire population,PANC-1 [11]; PANC-1,3-5 fold
same,% CD44hi CD24- in ESA+ cells,PANC-1 [11]; PANC-1 after culture with drug,8.6%
same,% CD44hi CD24hi in ESA+ cells,PANC-1 [11]; PANC-1 after culture with drug,9.7%
same,% CD44hi CD24low in ESA+ cells,PANC-1 [11]; PANC-1 after culture with drug,50.0%
same,% CSt-like-C,PANC-1 [11]; PANC-1 after culture with drug,38.3%
same,% ESA+,PANC-1 [11]; PANC-1 after culture with drug,76.7%
same,increase of ESA+ CD44hi CD24low and CD133+ populations in GEMRes population vs entire population,SKOV-3 [12]; SKOV3,3-5 fold
same,% CD44hi CD24- in ESA+ cells,SKOV-3 [12]; SKOV-3 after culture with drug,0.1%
same,% CD44hi CD24hi in ESA+ cells,SKOV-3 [12]; SKOV-3 after culture with drug,46.0%
same,% CD44hi CD24low in ESA+ cells,SKOV-3 [12]; SKOV-3 after culture with drug,51.5%
same,% CSt-like-C,SKOV-3 [12]; SKOV-3 after culture with drug,50.2%
same,% ESA+,SKOV-3 [12]; SKOV-3 after culture with drug,97.5%
same,GEMRes MCF7 cells in G1 (resting) phase,MCF7 cells,> 90%
same,CD44hi CD24hi (% of cells),MCF7 cells; MCF7,19.7%
same,CD44hi CD24hi (cell number),MCF7 cells; MCF7,0.26
same,CD44hi CD24low (% of cells),MCF7 cells; MCF7,(7.1%)
same,CD44hi CD24low (cell number),MCF7 cells; MCF7,0.09 × 10^6
same,ratio CD44hi CD24hi to CD44hi CD24low,MCF7 cells; MCF7,2
same,Stimulation Index,"MCF7 cells; MCF7, harvested/seeded",0.44
same,Harvested cells,"MCF7 cells; MCF7, seeded 3.0 x 10^6",1.32 10^6
same,number of cells expressing MICA and MICB in drug-resistant cells,MIA-PaCa-2 [8],increased
same,"NECD expression increase, GEMRes vs GEMSens",MCF7 [13],73%
same,"NICD level decrease, GEMRes vs GEMSens",MCF7 [13],39%
same,"NumbL expression decrease, GEMRes vs GEMSens",MCF7 [13],29%
same,"NumbS decrease, GEMRes vs GEMSens",MCF7 [13],18%
same,"NECD expression increase, GEMRes vs GEMSens",MIA-PaCa-2 [14],18%
same,"NICD level increase, GEMRes vs GEMSens",MIA-PaCa-2 [14],35%
same,"NumbL expression increase, GEMRes vs GEMSens",MIA-PaCa-2 [14],50%
same,"NumbS decrease, GEMRes vs GEMSens",MIA-PaCa-2 [14],18%
same,cells harvested,MIA-PaCa-2 [9],1.3 ×10^6 cells
CN[C@@H]1C[C@H]2O[C@@](C)([C@@H]1OC)n1c3ccccc3c3c4c(c5c6ccccc6n2c5c31)C(=O)NC4 [staurosporine],effect of treatment of SKOV3.A2 cells on IFN-g production by the indicator cell line,SKOV3.A2 cells,abolished
